Test results taken from patent EP0103895A2, “Novel hydroxylamine derivatives, production and use thereof” (MEIJI SEIKA KABUSHIKI KAISHA, priority 1982, dated 1984).
Values joined by “and” are separate entries in the source; they are usually repeats but may differ in a detail not shown here. Equal values may be shown once.

Legend:
[1] = test system: Diphyllobothrium erinacei; assay: Test of anthelmintic effect against Diphyllobothrium erinacei (tapeworm) in experimentally infected cats (Test Examples A5, B5, C5, D5); details: for anthelmintic effect: cats, 5 continuous administrations of 50 mg/Kg
[2] = test system: fowl roundworm (As. galli); assay: Anthelmintic test in chickens artificially infected with fowl roundworm, compound added to feed, E.P.G. and worm count up to 21st day (Test Examples A2, B2, C2, D2); assay type: in vivo, Ascaridia galli; details: chicken; for inhibition in vivo at 25 ppm / inhibition in vivo at 50 ppm: Ascaridia galli, feed or water, 504 h, read-out: Anthelmintic effect
[3] = test system: fowl roundworm (Ascaridia galli); assay: Anthelmintic test in chickens artificially infected with fowl roundworm, single oral dose in gelatin capsule, worm bodies counted within 48 hours (Test Examples A1, B1, C1, D1); assay type: in vivo; details: Ascaridia galli, po, 48 h, chicken, chickens No.1-3, read-out: Anthelmintic effect after 48 hours; for inhibition in vivo at 30 mg/kg: 30 mg/Kg oral in gelatin capsule; for inhibition in vivo at 15 mg/kg: 15 mg/Kg oral in gelatin capsule
Description: Chickens infected artificially with fowl roundworm (Ascaridia galli) were employed in groups each consisting of three chickens. Fecal matter testing was conducted before administration of medicine to confirm infection with the worm. The quantity of the compound provided for testing was 10 mg and 20 mg per Kg of body weight, which was orally administered each in a gelatin capsule to the chicken. The number of worm bodies discharged within 48 hours after administration of medicine was counted, the chicken was killed after 48 hours and the number of worm bodies remaining in the enteron was counted to determine the anthelmintic percentage, wherefrom the antihelmintic effect was judged.
The same as that in Test Example Al.
The same as that in Test Example Al except that the compound provided for testing was in quantities of 30 mg and 50 mg per Kg of body weight, which were orally administered to the chickens in gelatin capsules.
The same as that in Test Example Al, except that the compounds provided for testing were used in quantities of 15 mg and 30 mg per Kg of body weight, which were orally administered each in a gelatin capsule to the chicken.

[4] = test system: swine Oesophagostomum (Oesophagostomum dentatum); assay: Test of anthelmintic effect against swine Oesophagostomum in naturally infected pigs, E.P.G. on 7th day (Test Examples A8, B8, C8, D8); assay type: in vivo; details: for Change of E.P.G. 7th day / Change of E.P.G. Before administration: pig, Oesophagostomum dentatum; for Change of E.P.G. 7th day: 20 mg/Kg, one administration; for Change of E.P.G. Before administration: before 20 mg/Kg (baseline); for anthelmintic effect: pigs, one administration of 20 mg/Kg
Description: Six pigs infected with swine Oesophagostomum (naturally infected pigs) were employed by grouping them into groups each of two pigs.
As a control, only gelatin capsules were administered orally to the two pigs.
Before administration and on the 7th day after administration, fecal matter testing was conducted to calculate the E.P.G., and the anthelmintic effect was judged by the changing of the E.P.G. to negative.

[5] = test system: Liver fluke; Fasciola hepatica (F. hepatica); assay: Test of anthelmintic effect against rat infected experimentally with liver fluke (Test Examples A11, B11, C11, D11); assay type: in vivo
Excerpt: Twenty-eight (28) rats were employed in fourteen groups each of two rats, each rat being infected with 5 metacercariae of Liver fluke; Fasciola he^patica (F.. hepatica) and confirmed to have worm eggs on the 75th day after infection according to fecal matter testing.
Judgement of the effect was made by the presence or absence of the worm gees in the fecal matter on the 21st day after the last administration and by examination according to autopsis as to whether the worm bodies were dead or alive in the liver.
The same as that in Test Example All, but eight (8) rats were employed by grouping them into groups each of two rats, each rat being infected with 5 metacercariae of liver fluke and confirmed to have fluke eggs on the 75th day after infection according to fecal matter testing.
The compounds provided for the tests were Compound Nos. Bl, B8 and B19.
The same as that in Test Example All, but six (6) rats were employed by grouping them into groups each of two rats, each rat being infected with 5 metacercariae of Fasciola hepatica and confirmed to have worm eggs on the 75th day after infection according to fecal matter testing.
The compounds provided for the tests were Compound Nos. C2 and C6.
The same as that in Test Example All, but the compounds provided for tests were Compound Nos. D14, D15 and D16.

Structure (SMILES) | Number of worm bodies remaining in enteron ([1]; cat, 50 mg/Kg x 5, oral in gelatin capsule) | Worm egg detection on 10th day after administration ([1]; cat, 50 mg/Kg x 5, oral in gelatin capsule, once per day for 5 days) | anthelmintic effect [1] | inhibition in vivo at 25 ppm ([2]; 25 ppm in feed) [%] | inhibition in vivo at 50 ppm ([2]; 50 ppm in feed) [%] | Change of E.P.G. 21st day ([2]; 25 ppm in feed) | Change of E.P.G. 21st day ([2]; 50 ppm in feed) | inhibition in vivo at 30 mg/kg [3] [%] | inhibition in vivo at 50 mg/kg ([3]; 50 mg/Kg oral in gelatin capsule) [%] | Change of E.P.G. 7th day [4] | Change of E.P.G. Before administration [4] | anthelmintic effect [4] | Number of worms remaining in enteron ([1]; cat, 50 mg/Kg x 5) | inhibition in vivo at 15 mg/kg [3] [%] | Condition of fluke bodies ([5]; rat, 50 mg/Kg x 5) | Presence or absence of fluke egg in fecal matter On 21st day after the last administration ([5]; rat, 50 mg/Kg x 5) | anthelmintic effect ([5]; rats, five administrations in a dose of 50 mg/Kg each)
C=CCON(CC=C)C(=O)c1ccc(F)cc1 [Compound C7] | 0 | - | marked anthelmintic effects | 100 | 100 | 0 | 0 | 100 | 100 |  |  |  |  |  |  |  | 
C=CCNOCC(C)C [Compound D3] |  |  |  | 80 to 90 | 100 |  |  | 100 |  | 0 | 2,200 and 1,800 | marked anthelmintic effect |  |  |  |  | 
C=CCNOC [Compound D9] |  |  | marked anthelmintic effects |  |  |  |  | 100 |  |  |  |  | 0 | 50 to 79 |  |  | 
C#CCNOCCCC [Compound D12] |  |  |  |  |  |  |  | 100 |  | 0 | 1,600 and 2,100 | marked anthelmintic effect |  |  |  |  | 
C#CCNOCC#C [Compound D15] |  |  |  | 80 to 90 | 100 |  |  | 100 |  |  |  |  |  | 100 | dead | - | marked anthelmintic effect
